# Measurements reported in patent US4769321A, “Assay method and reagent therefor” (priority 1979, dated 1988).
# B1: alkaline phosphatase: Sigma Type VII from bovine (calf) intestine catalogue number P4502 (protein, UniProt P19111 20-506, looked up)
# Intestinal-type alkaline …: LVPVEEEDPAFWNRQAAQALDVAKKLQPIQTAAKNVILFLGDGMGVPTVTATRILKGQMNGKLGPETPLAMDQFPYVALSKTYNVDRQVPDSAGTATAYLCGVKGNYRTIGVSAAARYNQCKTTRGNEVTSVMNRAKKAGKSVGVVTTTRVQHASPAGAYAHTVNRNWYSDADLPADAQMNGCQDIAAQLVNNMDIDVILGGGRKYMFPVGTPDPEYPDDASVNGVRKRKQNLVQAWQAKHQGAQYVWNRTALLQAADDSSVTHLMGLFEPADMKYNVQQDHTKDPTLQEMTEVALRVVSRNPRGFYLFVEGGRIDHGHHDDKAYMALTEAGMFDNAIAKANELTSELDTLILVTADHSHVFSFGGYTLRGTSIFGLAPSKALDSKSYTSILYGNGPGYALGGGSRPDVNDSTSEDPSYQQQAAVPQASETHGGEDVAVFARGPQAHLVHGVEEETFVAHIMAFAGCVEPYTDCNLPAPTTATSIPD
# Assays:
# PK(I) = assay: Detection of ATP by activation of the PFK/PK(I) feedback system (Example B2); format: biochemical, E. coli; conditions: 0.0001 to 0.5 mM ATP; 340 nm, 30° C.
# Description: Cultures of E. coli strain K1-1 were grown on a synthetic medium containing essential nutrients and glycerol as carbon source, until well into their logarithmic phase of growth. The cells were harvested, washed by centrifugation and resuspended in a sonication buffer of 5 mM phosphate, 1 mM EDTA, 2 mM mercaptoethanol pH 7.5 in an amount of approximately 20 mg dry weight per ml. They were then disrupted with an MSE ultrasonic disintegrator for 4 minutes (in 30 seconds bursts while cooled). The resulting crude extract was separated from cell debris by centrifugation. As well as containing pyruvate kinase (I) this extract also contained an interfering isoenzyme with different properties, and also a number of other interfering enzyme activities. It was found, however, that it was possible to remove these contaminants by heating the extract to 55° C. for 20-60, for example 45, minutes. This is the source of pyruvate kinase (I) referred to in the following examples.
# In this example the same basic system described in Example 1 was again used, but instead of the system being used to detect an enzyme capable of giving rise to ATP, the pre-existing ATP in a solution was assayed, using a PK(I) extract which had been prepared by heating at 55° C. for 60 minutes.
# As in the previous example, the assays were carried out in quartz spectrophotometer cuvettes for use with 1.0 ml assay mixtures. […]
# creatine kinase = assay: Creatine phosphate detection with creatine kinase as reagent (Example B7); format: biochemical, bovine; conditions: for O.D. Units (340 nm) change/minute at 1.5 minutes: CK 0.05 U, 30° C., nil CP gave 0.0011
# Description: Mixtures were made up in 10 mM dimethyl-glutamate buffer at pH 6.8 and containing 5 mM MgCl2 and 0.1% in bovine serum albumin as follows:
# In each case the components were combined from stock solutions in a quartz cuvette of 1 ml capacity, mixed and immediately monitored for NADH oxidation by following their optical density at 340 nm and 30° C.
# [1] = system: E. coli Type I pyruvate kinase (PK); conditions: in the presence of certain amounts of phosphoenolpyruvate; cited from earlier work
# alkaline phosphatase = assay: Detection of alkaline phosphatase by antibody-coated wells and NAD cycle (Example A1); format: biochemical, bovine (calf); conditions: ten-fold dilutions 1:1000 to 1:10^7; pH 9.3; room temperature
# Description: The alkaline phosphatase used in this example is as obtainable from the Sigma Chemical Co (London) Ltd Type VII from bovine (calf) intestine catalogue number P4502 (1981). Antibody is raised against this material by any of the standard procedures. For example 0.5 mg of the alkaline phosphatase suspension is taken and made to 1.0 ml with distilled water and shaken gently. One ml of Freund's complete adjuvant is then added and the mixture homogenised through a connector between two hypodermic syringes back and forth until a stable water-in-oil emulsion is produced. Approximately 1 ml of the emulsion is then injected intramuscularly into each hindquarter of a rabbit. The injections are repeated two and four weeks later with the same amount of alkaline phosphatase but without the added Freund's adjuvant. Blood is then taken from the immunised animal two weeks after the last injection and the immune-serum taken off after clotting has taken place. An IgG fraction of the serum is then obtained by the standard procedure of DEAE Cellulose Chromatography set out in Methods in Immunology by D. H. Cambell, J. S. Garvey, N. E. Cremer and D. H. Sussdorf, 2nd Edition (1970) pages 193-197, published by W. A. Benjamin, Reading Mass. […] The plates are now ready for use. […]
molecule,measurement,setting,value
"Nc1ncnc2c1ncn2[C@@H]1O[C@H](COP(=O)(O)OP(=O)(O)OP(=O)(O)O)[C@@H](O)[C@H]1O [ATP, adenosine 5'-triphosphate]",initiation and rate of NADH oxidation vs ATP concentration,PK(I),The higher concentrations of ATP gave rise to an earlier initiation of observable NADH oxidation and subsequently increased in their rate faster than the lower concentrations
"CN(CC(=O)O)C(=N)NP(=O)(O)O [CP, creatine phosphate]",dependence of the system on creatine phosphate,creatine kinase,dependent on the presence of creatine phosphate and the concentration thereof
same,O.D. Units (340 nm) change/minute at 1.5 minutes,creatine kinase; CP concentration 0.4 mM,0.0070 O.D. Units (340 nm) change/min
same,O.D. Units (340 nm) change/minute at 1.5 minutes,creatine kinase; CP concentration 4.0 mM,0.0118 O.D. Units (340 nm) change/min
"O=C(COP(=O)(O)O)[C@@H](O)[C@H](O)[C@H](O)COP(=O)(O)O [fructose-1,6-diphosphate]",activation of E. coli Type I pyruvate kinase,[1],very potent activator
B1,colour change in wells vs alkaline phosphatase concentration,alkaline phosphatase,change of colour from pale yellow to black much faster than did those which had been exposed to a lower concentration
